Data on seven compounds can be found in patent publication US7569547B2, “Inhibiting furin with polybasic peptides” (Board of Supervisors of Louisiana State University and …, priority 2001, dated 2009).

As a reminder, the Ki is a dissociation constant, usually derived from enzyme kinetics or from competition with a known ligand.

Residues, ends and D or L forms follow the SMILES beside them. *: point of attachment. CH2Cl = ClC*

In one test the target is T1, PC2 (Mus musculus, UniProt P21661).
T1 sequence (P21661 109-637): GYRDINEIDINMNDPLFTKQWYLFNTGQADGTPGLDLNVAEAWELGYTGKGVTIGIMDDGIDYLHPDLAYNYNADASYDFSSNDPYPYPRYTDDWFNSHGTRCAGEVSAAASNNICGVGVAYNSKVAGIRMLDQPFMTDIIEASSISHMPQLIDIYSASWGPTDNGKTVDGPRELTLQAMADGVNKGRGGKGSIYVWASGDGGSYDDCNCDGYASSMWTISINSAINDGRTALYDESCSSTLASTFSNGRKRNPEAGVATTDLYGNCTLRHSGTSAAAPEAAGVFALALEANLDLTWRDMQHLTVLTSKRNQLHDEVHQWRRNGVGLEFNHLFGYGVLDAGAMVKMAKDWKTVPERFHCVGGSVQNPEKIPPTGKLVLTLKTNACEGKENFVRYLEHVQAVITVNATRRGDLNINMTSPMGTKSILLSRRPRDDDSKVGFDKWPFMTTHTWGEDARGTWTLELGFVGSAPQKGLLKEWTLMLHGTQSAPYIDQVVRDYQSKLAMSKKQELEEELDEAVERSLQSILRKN
Description: PC2 enzyme assay, hydrolysis of pERTKR-MCA at pH 5.0. Format: biochemical. Also noted: made in house. The method, then:
(§1) The proprotein convertases PC1 and PC2 were prepared by ion exchange chromatography as described in G. Frenette et al., Biochim. Biophys. Acta., vol. 1334, pp. 109-115 (1997).
(§2) Enzyme Assays and Hexapeptide Library Screening. Enzyme assays for PC1 and PC2 were performed at pH 5.0 using pERTKR-MCA (Peptides International Inc., Louisville, Ky.) as described in E. Apletalina et al., J. Biol. Chem., vol. 273, pp. 26589-26595 (1998). The assay for furin was performed using the same substrate at pH 7.0 in 100 mM HEPES, 5 mM CaCl2, 0.1% Brij 35. All assays were performed at 37° C. in a 96 well fluorometer (Labsystems) at an excitation wavelength of 380 nm with emission monitored at a wavelength of 460 nm. The total volume was 50 μL. Unless otherwise stated, the final substrate concentration for all assays was 200 μM. When used in a particular experiment, the inhibitory peptides were pre-incubated with enzyme for 30 min at room temperature prior to addition of substrate. All assays were performed in duplicate or triplicate.

Test [1] has as its target T2, PC1 (Homo sapiens, UniProt P29120).
T2 sequence (P29120 111-753): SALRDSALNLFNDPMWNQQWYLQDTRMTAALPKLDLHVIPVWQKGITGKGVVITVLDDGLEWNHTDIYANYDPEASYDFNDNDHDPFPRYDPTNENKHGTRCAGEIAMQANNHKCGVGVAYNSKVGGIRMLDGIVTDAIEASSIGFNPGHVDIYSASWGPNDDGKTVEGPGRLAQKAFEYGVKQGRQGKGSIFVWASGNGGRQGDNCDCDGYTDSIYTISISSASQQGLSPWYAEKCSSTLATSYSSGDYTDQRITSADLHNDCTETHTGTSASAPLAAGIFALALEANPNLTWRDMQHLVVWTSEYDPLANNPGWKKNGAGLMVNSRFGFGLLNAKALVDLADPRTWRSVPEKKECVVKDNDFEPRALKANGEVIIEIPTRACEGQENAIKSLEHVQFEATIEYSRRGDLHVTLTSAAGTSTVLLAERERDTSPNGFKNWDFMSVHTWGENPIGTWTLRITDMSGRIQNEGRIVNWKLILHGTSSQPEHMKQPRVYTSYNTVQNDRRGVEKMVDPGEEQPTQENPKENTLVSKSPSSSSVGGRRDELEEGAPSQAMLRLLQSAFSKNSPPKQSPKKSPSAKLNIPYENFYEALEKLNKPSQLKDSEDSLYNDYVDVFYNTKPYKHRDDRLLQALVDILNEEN
The settings on record: literature; cited from earlier work.

The next test has as its target T3, recombinant mouse furin (Mus musculus, UniProt P23188).
T3 construct: truncated N-terminally to the transmembrane domain at His^711 using PCR; myc (C, cleaved yes); hexa-His (C, cleaved yes); made in house; host or cells: DG44 CHO cells, conditioned medium
Description: Furin enzyme assay, hydrolysis of pERTKR-MCA at pH 7.0. Format: biochemical.
Description: Recombinant convertase preparation. The mouse furin clone was a kind gift from K. Nakayama (Fukuoka University School of Medicine, Fukuoka, Japan). The mouse furin cDNA was truncated N-terminally to the transmembrane domain at His^711 using PCR. This PCR product was then subcloned into pcDNA3.1 (−) myc-His (Invitrogen) at the Nhe1 and Xba1 restriction sites. Dihydrofolate-reductase-negative DG44 Chinese Hamster Ovary (CHO) cells (L. Chasin, Columbia University, New York, N.Y.) were transfected using Lipofectin (Life Technologies), and colonies were selected at 37° C. in 5% CO2 in α-MEM (lacking nucleosides) containing 10% well-dialyzed fetal bovine serum (Life Technologies). Conditioned media from colonies were screened using an enzyme assay (see below), and a high-expressing clone was selected. Overexpression of furin was achieved by increasing the methotrexate concentration from 5 nM to 50 μM in five- to ten-fold steps as described in I. Lindberg et al., Methods Neurosci., vol. 23, pp. 94-108 (1995). The amplified lines were tested for increased furin expression by enzyme assay. Once the 50 μM methotrexate level had been reached, cells were split at ratios of 1:6 twice a week. 100 mL of conditioned media (OptiMEM, Life Technologies) containing 100 μg/mL aprotinin (Miles Laboratories, Kankakee, Ill.) was collected from confluent roller bottles every 24 h. The medium was then centrifuged at low speed to remove cells, and the supernatant was stored at −80° C. until use.
Purification of furin: Conditioned medium was thawed, pooled, and diluted 1:3.5 with buffer A (20 mM HEPES, 0.1% Brij 35, 5 mM CaCl2, pH 7.4), and pumped at 40 mL/min through a Sartorius D100 anion exchange membrane. The membrane was washed with 40 mL of buffer A, followed by 40 mL of buffer A containing 50 mM NaCl, and finally by 40 mL of buffer A containing 200 mM NaCl. The fraction eluting with 200 mM NaCl was diluted 1:4 with buffer A and applied to a 1 mL Pharmacia Mono Q HR5/5 anion exchange column at a flow rate of 1 mL/min. Following a 10 mL wash with buffer A, furin was eluted by a linear increase of 0 to 500 mM NaCl in buffer A over 30 mL; and 2 mL fractions were collected. Fractions containing peak activity were pooled, and 200 μL aliquots were subjected to gel permeation chromatography using a Pharmacia Superose 12 column at a flow rate of 0.5 mL/min of buffer A containing 200 mM NaCl. Fractions were assayed for activity as described below; protein content was determined using the Bradford method. All purification steps were performed at 4° C.
as §2

The target in test [2] is T4, PC1 (Mus musculus, UniProt P63239).
T4 construct: made in house
T4 sequence (P63239 111-753): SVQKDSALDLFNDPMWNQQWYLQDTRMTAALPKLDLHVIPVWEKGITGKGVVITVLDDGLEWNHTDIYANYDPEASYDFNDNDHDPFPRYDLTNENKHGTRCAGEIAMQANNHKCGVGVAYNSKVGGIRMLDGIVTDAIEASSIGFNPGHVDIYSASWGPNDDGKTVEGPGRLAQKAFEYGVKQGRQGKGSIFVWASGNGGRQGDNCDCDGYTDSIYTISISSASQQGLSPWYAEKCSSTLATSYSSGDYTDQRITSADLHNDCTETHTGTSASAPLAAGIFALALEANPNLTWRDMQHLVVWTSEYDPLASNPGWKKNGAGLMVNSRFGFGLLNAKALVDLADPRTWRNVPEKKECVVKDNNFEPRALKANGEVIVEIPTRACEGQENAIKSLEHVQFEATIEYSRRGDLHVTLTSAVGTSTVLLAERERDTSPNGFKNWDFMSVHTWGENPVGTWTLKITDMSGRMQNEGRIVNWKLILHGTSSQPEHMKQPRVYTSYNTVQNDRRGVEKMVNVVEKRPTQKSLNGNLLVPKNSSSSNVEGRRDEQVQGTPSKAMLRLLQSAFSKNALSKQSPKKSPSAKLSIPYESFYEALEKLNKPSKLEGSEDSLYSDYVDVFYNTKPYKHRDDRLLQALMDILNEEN
Description: biochemical. Format: biochemical. The method, then:
as §1, §2

For a further test, the target named is T5, PACE4 (Rattus norvegicus, UniProt Q63415).
T5 construct: made in house; host or cells: stably transfected hEK-293 cells (gift of R. E. Mains), conditioned medium
T5 sequence (Q63415 133-937): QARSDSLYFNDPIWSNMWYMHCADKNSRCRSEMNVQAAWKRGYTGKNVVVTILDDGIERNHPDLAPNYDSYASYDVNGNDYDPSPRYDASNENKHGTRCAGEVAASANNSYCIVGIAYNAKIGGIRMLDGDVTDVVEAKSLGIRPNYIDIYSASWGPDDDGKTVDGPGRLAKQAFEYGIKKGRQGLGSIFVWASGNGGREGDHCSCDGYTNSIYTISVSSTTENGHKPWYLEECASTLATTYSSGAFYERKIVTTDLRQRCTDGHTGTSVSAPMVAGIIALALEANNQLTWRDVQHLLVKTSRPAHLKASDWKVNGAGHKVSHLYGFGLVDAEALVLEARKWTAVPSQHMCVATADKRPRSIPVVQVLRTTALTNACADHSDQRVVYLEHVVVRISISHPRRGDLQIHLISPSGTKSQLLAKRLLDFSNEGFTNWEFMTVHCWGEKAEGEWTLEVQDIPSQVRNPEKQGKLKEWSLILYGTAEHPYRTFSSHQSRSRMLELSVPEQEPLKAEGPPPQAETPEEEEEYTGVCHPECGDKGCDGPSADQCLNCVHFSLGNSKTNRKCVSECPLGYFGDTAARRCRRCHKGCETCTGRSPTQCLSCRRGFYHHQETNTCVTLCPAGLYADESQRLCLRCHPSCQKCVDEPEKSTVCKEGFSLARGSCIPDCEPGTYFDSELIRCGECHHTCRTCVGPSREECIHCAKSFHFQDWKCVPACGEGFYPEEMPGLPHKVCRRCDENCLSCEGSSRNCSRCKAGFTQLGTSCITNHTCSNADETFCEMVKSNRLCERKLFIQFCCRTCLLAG
Briefly: PACE4 enzyme assay, hydrolysis of pERTKR-MCA. Format: biochemical. The method, then:
The proprotein convertase PACE4 was partially purified from an overnight-conditioned medium of stably transfected hEK-293 human embryonic kidney cells (a generous gift of R. E. Mains, Johns Hopkins University School of Medicine, Baltimore, Md.). Briefly, 100 mL of conditioned medium (OptiMEM containing 100 μg/mL aprotinin) was loaded onto an Econo-Pac Q (Bio-Rad) column at 4 mL/min, washed with 10 mL of buffer A, and then eluted with a linear gradient of buffer A containing 500 mM NaCl over 50 mL. The active fractions were then diluted 1:4 with buffer A prior to loading onto a Mono Q column (Pharmacia) at 1 mL/min. The PACE4 was eluted with a linear gradient of buffer A containing 500 mM NaCl over 10 mL. The resulting active fractions were then pooled and stored at −80° C. until use.
as §2

The next test concerns the target furin (Homo sapiens, UniProt P09958). As to conditions: literature, cited from earlier work.

Chain of furin (P09958 108-794): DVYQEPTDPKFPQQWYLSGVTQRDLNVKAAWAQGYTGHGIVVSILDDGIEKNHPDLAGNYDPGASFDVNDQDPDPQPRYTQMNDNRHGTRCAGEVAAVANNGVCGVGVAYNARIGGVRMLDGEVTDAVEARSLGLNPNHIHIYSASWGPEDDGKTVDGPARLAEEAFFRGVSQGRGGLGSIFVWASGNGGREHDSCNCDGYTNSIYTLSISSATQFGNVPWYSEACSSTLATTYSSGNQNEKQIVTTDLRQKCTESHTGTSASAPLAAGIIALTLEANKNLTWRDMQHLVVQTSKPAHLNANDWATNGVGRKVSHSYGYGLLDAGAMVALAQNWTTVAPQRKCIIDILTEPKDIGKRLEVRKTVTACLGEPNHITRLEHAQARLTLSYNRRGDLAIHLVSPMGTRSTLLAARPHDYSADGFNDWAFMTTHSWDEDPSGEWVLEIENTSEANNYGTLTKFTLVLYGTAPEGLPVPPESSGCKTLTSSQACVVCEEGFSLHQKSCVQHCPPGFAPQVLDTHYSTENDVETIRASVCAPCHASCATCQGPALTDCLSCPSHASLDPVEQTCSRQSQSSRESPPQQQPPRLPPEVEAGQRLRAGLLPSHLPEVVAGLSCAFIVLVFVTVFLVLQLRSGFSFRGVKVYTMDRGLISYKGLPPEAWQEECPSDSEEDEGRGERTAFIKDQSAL
T3 sequence (P23188 108-714 limits assumed): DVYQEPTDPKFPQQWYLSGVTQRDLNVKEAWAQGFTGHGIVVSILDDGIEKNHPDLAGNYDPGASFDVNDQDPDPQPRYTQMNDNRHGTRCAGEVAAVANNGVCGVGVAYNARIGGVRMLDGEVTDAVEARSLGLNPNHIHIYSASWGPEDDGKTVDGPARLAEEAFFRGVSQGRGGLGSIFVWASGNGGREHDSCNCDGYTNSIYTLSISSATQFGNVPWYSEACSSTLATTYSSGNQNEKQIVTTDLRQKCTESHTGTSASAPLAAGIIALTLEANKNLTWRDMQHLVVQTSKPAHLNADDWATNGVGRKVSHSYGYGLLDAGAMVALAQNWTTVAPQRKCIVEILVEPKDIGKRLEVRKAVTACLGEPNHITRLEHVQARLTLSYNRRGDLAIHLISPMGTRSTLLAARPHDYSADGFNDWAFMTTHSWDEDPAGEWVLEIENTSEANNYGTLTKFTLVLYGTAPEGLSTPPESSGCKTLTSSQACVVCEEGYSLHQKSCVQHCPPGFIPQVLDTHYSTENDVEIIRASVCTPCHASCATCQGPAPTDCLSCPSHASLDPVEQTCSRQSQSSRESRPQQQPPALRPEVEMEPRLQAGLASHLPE

On to `CC(=O)N[C@@H](CC(C)C)C(=O)N[C@@H](CC(C)C)C(=O)N[C@@H](CCCNC(=N)N)C(=O)N[C@H](C(=O)N[C@@H](CCCCN)C(=O)N[C@@H](CCCNC(=N)N)C(N)=O)C(C)C` [Ac-LLRVKR-NH2], for which the Ki is 1000 ± 80 nM at PC2 and 3400 ± 100 nM on recombinant mouse furin. Besides, at PC1 [1], the “Ki / inhibition of PC1, in words” value is “nanomolar inhibitor”.

For `N=C(N)NCCC[C@H](NC(=O)[C@H](CCCNC(=N)N)NC(=O)[C@H](CCCNC(=N)N)NC(=O)[C@H](CCCNC(=N)N)NC(=O)[C@H](CCCNC(=N)N)NC(=O)[C@H](CCCNC(=N)N)NC(=O)[C@H](CCCNC(=N)N)NC(=O)[C@@H](N)CCCNC(=N)N)C(=O)O` [Octa-L-arginine], the Ki at PC1 [2] stood at 5100 ± 2000 nM; at PACE4, 150 ± 60 nM.

`N=C(N)NCCC[C@H](NC(=O)[C@H](CCCNC(=N)N)NC(=O)[C@H](CCCNC(=N)N)NC(=O)[C@@H](N)CCCNC(=N)N)C(=O)O` [Tetra-L-arginine] (H-RRRR-OH): the inhibitory constant (Ki) at PC1 [2] and on PACE4 was over 200000 nM each time. Also, at PC1 [2] (μM concentrations), the “inhibition of PC1” value is “not inhibited”. The “inhibition of PACE4” value at PACE4 (mM concentrations) is on record as “not found to inhibit even at mM concentrations”.

Regarding “Ac-YEKERSKR-CH2Cl (SMILES CC(=O)N[C@@H](Cc1ccc(O)cc1)C(=O)N[C@@H](CCC(=O)O)C(=O)N[C@@H](CCCCN)C(=O)N[C@@H](CCC(=O)O)C(=O)N[C@@H](CCCNC(=N)N)C(=O)N[C@@H](CO)C(=O)N[C@@H](CCCCN)C(=O)N[C@@H](CCCNC(=N)N)C(=O)CCl) [reference compound]”, in the test with furin, the “Ki against furin, in words” value was “low nM”. Further, the “Ki / inhibition of PC1, in words” value with PC1 [1] was “low nM”.

For H-RRRRR-OH [Penta-L-arginine], the inhibition constant (Ki) on PC1 [2] came to 14000 ± 6100 nM; at PACE4, 980 ± 120 nM.

With decanoyl-RVKR-CH2-AVG-NH2, at furin (read-out: Ki against furin), the inhibitory constant (Ki) is 3.4 nM.

With “α1-PDX: α1-antitrypsin variant with reactive site loop bioengineered to contain a minimal furin consensus sequence [reference compound]”, the inhibition of furin entry in the test with furin was “sub-nanomolar range”; with recombinant mouse furin (nanomolar α1-PDX concentrations, validation of enzyme preparation) it was “strongly inhibited”.
